Calls of active or inactive are those of the source. The calls are words filed in the database; no cut-off is given here.
Legend:
[1] = Antiproliferative activity against human HCT116 cells by MTT assay; type: functional, cell-based; conditions: HCT-116
MDA-MB-231 = assay: Antiproliferative activity against human MDA-MB-231 cells by MTT assay; type: functional, cell-based
[2] = Antiproliferative activity against human PC3 cells by MTT assay; type: functional, cell-based; conditions: PC-3
HepG2 = assay: Antiproliferative activity against human HepG2 cells by MTT assay; type: functional, cell-based
HUVEC [3] = assay: Anti-angiogenic activity in human HUVEC assessed as inhibition of tube formation at 0.05 uM by matrigel assay; type: functional, cell-based
Thoracic aorta = assay: Ex-vivo anti-angiogenic activity in Sprague-Dawley rat thoracic aorta ring assessed as sprouting at 0.05 to 0.1 uM after 6 days; type: functional, tissue-based
HUVEC [4] = assay: Anti-angiogenic activity in human HUVEC assessed as inhibition of tube formation at 0.1 uM by matrigel assay; type: functional, cell-based

SMILES	IC50 (MDA-MB-231) [µM]	IC50 (HepG2) [µM]	IC50 [1] [µM]	IC50 [2] [µM]	inhibition (HUVEC [3])	inhibition (Thoracic aorta)	inhibition (HUVEC [4])
CNC(=O)c1ccc(Oc2cccc(NC(=S)Nc3ccc(OC(F)(F)F)cc3)c2)nc1	56	> 100	54.7	> 100			
CNC(=O)c1ccc(Oc2cccc(NC(=S)Nc3ccc(C)cc3)c2)nc1	29.5	65.4	53.7	> 100			
CNC(=O)c1cc(Oc2cccc(NC(=S)Nc3ccc(Cl)c(C(F)(F)F)c3)c2)ccn1	42.4	24.9	14.6	16.4			
CNC(=O)c1ccc(Oc2cccc(NC(=S)Nc3cccc(C(F)(F)F)c3)c2)nc1	38.1	23.3	36.6	15.4			
CNC(=O)c1ccc(Oc2cccc(NC(=S)Nc3ccc(C)c(C)c3)c2)nc1	38.6	> 100	48.2	67.4			
CNC(=O)c1ccc(Oc2cccc(NC(=S)Nc3ccc(Cl)cc3)c2)nc1	66.5	29.4	42.5	28.4			
CNC(=O)c1ccc(Oc2cccc(NC(=S)Nc3ccc(F)c(F)c3)c2)nc1	69.3	26.7	38.2	23.1			
CNC(=O)c1ccc(Oc2cccc(NC(=S)Nc3ccc(OC)cc3)c2)nc1	31.5	85.3	49.8	> 100			

Stronger by IC50 (MDA-MB-231), values ahead:

IC50 (MDA-MB-231) [µM]	IC50 (HepG2) [µM]	SMILES	IC50 [1] [µM]	IC50 [2] [µM]	inhibition (HUVEC [3])	inhibition (Thoracic aorta)	inhibition (HUVEC [4])
28.6	> 100	CNC(=O)c1ccc(Oc2cccc(NC(=S)Nc3ccc(F)c(Cl)c3)c2)nc1	25.4	18.4			
2.33	5.35	CNC(=O)c1ccc(Oc2cccc(NC(=S)Nc3ccc(Cl)c(C(F)(F)F)c3)c2)nc1	2.21	1.98	Active	Active	
21.7	42.5	CNC(=O)c1ccc(Oc2cccc(NC(=S)Nc3ccc(F)cc3)c2)nc1	39.4	32.7			
17.8	10.5	CNC(=O)c1cc(Oc2ccc(NC(=O)Nc3ccc(Cl)c(C(F)(F)F)c3)cc2)ccn1 [SORAFENIB]	8.41	11	Active		Active
3.02	8.53	CNC(=O)c1ccc(Oc2cccc(NC(=S)Nc3ccc(Br)c(C(F)(F)F)c3)c2)nc1	3.12	2.67			
13.3	20.2	CNC(=O)c1ccc(Oc2cccc(NC(=S)Nc3ccc(F)c(C(F)(F)F)c3)c2)nc1	19	7.95			
20.7	21.6	CNC(=O)c1ccc(Oc2cccc(NC(=S)Nc3ccc(Cl)cc3Cl)c2)nc1	20.9	19.3			
2.67	4.55	CNC(=O)c1ccc(Oc2cccc(NC(=S)Nc3cc(C(F)(F)F)cc(C(F)(F)F)c3)c2)nc1	2.5	5.86	Active	Active	

Reference: ChEMBL document CHEMBL3739315, “Design, synthesis and biological evaluation of thiourea and nicotinamide-containing sorafenib analogs as antitumor agents” (Medchemcomm, 2015)
